Source: patent publication EP0536208B1, “1,2-DIHYDRO-3H-DIBENZISOQUINOLINE-1,3-DIONE ANTICANCER AGENTS” (RESEARCH CORPORATION TECHNOLOGIES, INC., priority 1990, dated 1992)
pIC50: −log10 of the molar value. Values after ≈ are worked out from the molar mass of the structure shown. Read-outs that look alike come from different tables or passages of the source.

Experiments:
205p14 = test: Activity against human colon tumor cells (MTT assay, 3 day drug exposure); format: cell-based; conditions: cells plated 24 hr. prior to drug addition, read-out: Concentration for 50% inhibition of colony formation for human colon tumors
Description: (§1) For example, the compounds of the present invention were evaluated for cytotoxic activities in cloned human colon carcinomas. The clonogenic assays were conducted in accordance with the procedure described hereinbelow: 1) Colony Forming Assays in Soft Agar: Fresh human or murine tumors are disaggregated into single cell suspensions using mechanical, hypoosmotic and/or enzymatic (trypsin) methods. The single cells (about 5 X 10^4-10^5) are plated in 35 mm plastic petri dishes onto a 1 ml "feeder layer" of 0.3% agar dissolved in growth medium containing 5-10% vol/vol of heat-inactivated fetal bovine serum, molten 0.3% agar and the antibiotics penicillin (100 u/mL) and streptomycin (100 ug/mL). Drug exposures can be performed for one hour or continuously (drugs added to final plating medium). Tumor cell colonies > 60 uM in size are counted by automated image analysis after 10-20 days of incubation in a humidified, 5-10% CO2-gassed environment maintained at 37°C. Inhibition of colony formation is calculated based on comparisons to control (untreated) plates wherein the growth of hundreds of colonies/plate is typical. (Salmon SE, et al., N Engl J Med 298(24):1321-1327, 1978).
(§2) Compounds of the present invention were tested for their in vitro activity in tumor cells sensitive and resistant to standard anti-cancer agents. The tumor cell lines used in this protocol are 8226 human Myeloma^1; 8226/Dox-40^2, L-1210/Murine Leukemia, multidrug resistant L-210/^3, 2780 Human Ovarian Cancer and 2780/AD^4. Each of these resistant cell lines is known as a multidrug resistant or "MDR" cell line. These cell lines produce a 170,00 molecular weight membrane protein termed the P-glycoprotein which acts as an active drug efflux pump. Thus, once a cell produces the P-glycoprotein, it has the capability of pumping out of the cell a large variety of unrelated natural products. […] The protocol for measuring the effectiveness of compounds of the present invention is as follows: 2) In Vitro Tumor Cell Viability Assays Using MTT-Dye: Tumors are processed into a single cell suspension as described above. The cells are plated at a concentration of 3-5 X 10^4/1 mL well into plastic 96-well plates. Growth medium containing 5-10% (vol/vol) heat-inactivated fetal bovine serum and penicillin/streptomycin (as above) is added prior to incubation at 37°C for six days. Afterwards the medium containing the drug is removed, the cells are "washed" by centrifugation in fresh medium or phosphate-buffered saline (pH 7.4). A tetrazolium dye is then added (3,4,5-dimethylthiazol-2-yl)-2,5-diphenyl tetrazolium bromide (MTT). This dye forms a colored formazan product upon activation by mitochondrial reductases in viable cells. Typically, the formazan product is solubilized in acid-propanol or DMSO. The intensity of the color is proportional to viable cell numbers and this is quantitated by spectrophotometric absorbance ([…]) on a micro ELISA plate reader. Test results are calibrated in % control absorbance from untreated tumor cells (Mossman T: J Immunol Meth 65:55-63, 1983). Using the above procedure, Compound 1 was tested for its cytotoxic activity with respect to various tumor cell lines.

LOVOp32 = test: as above; format: cell-based; conditions: cells plated 24 hr. prior to drug addition, read-out: Concentration for 50% inhibition of colony formation for human colon tumors
Description: as §1, §2

HT29p30 = test: as above; format: cell-based; conditions: cells plated 24 hr. prior to drug addition, read-out: Concentration for 50% inhibition of colony formation for human colon tumors
Description: as §1
as §2, with “Growth medium containing 5-10% (vol/vol) heat-inactivated fetal bovine serum and penicillin/streptomycin (as above) is added prior to incubation at 37°C for six days.” left out

SW80p105 = test: as above; format: cell-based; conditions: cells plated 24 hr. prior to drug addition, read-out: Concentration for 50% inhibition of colony formation for human colon tumors
Description: as §1
as §2, with “Growth medium containing 5-10% (vol/vol) heat-inactivated fetal bovine serum and penicillin/streptomycin (as above) is added prior to incubation at 37°C for six days.” left out

8226 Human Myeloma = test: In vitro tumor cell viability assay using MTT dye; format: cell-based; conditions: Homo sapiens; 8226 Myeloma Cells Sensitive; continuous exposure, MTT dye assay; read-out: IC50 VALUES
Description: as §2, with “Growth medium containing 5-10% (vol/vol) heat-inactivated fetal bovine serum and penicillin/streptomycin (as above) is added prior to incubation at 37°C for six days.” left out

L-1210/Murine Leukemia = test: In vitro tumor cell viability assay using MTT dye; format: cell-based; conditions: Mus musculus
Description: as §2, with “Growth medium containing 5-10% (vol/vol) heat-inactivated fetal bovine serum and penicillin/streptomycin (as above) is added prior to incubation at 37°C for six days.” left out

Resistant L1210 = test: In vitro tumor cell viability assay using MTT dye; format: cell-based, Murine; conditions: Mus musculus
Description: as §2, with “Growth medium containing 5-10% (vol/vol) heat-inactivated fetal bovine serum and penicillin/streptomycin (as above) is added prior to incubation at 37°C for six days.” left out

8226/DOX-40 = test: In vitro tumor cell viability assay using MTT dye; format: cell-based, Human; conditions: Homo sapiens; 8226 Myeloma Cells Resistant; continuous exposure, MTT dye assay; read-out: IC50 VALUES
Description: as §2, with “Growth medium containing 5-10% (vol/vol) heat-inactivated fetal bovine serum and penicillin/streptomycin (as above) is added prior to incubation at 37°C for six days.” left out

[1] = 144 h, Sensitive L1210, six day MTT assay, continuous drug exposure, read-out: Concentration for 50% inhibition of tumor cells
[2] = L1210 Leukemia Cells Sensitive, continuous exposure, MTT dye assay, read-out: IC50 VALUES
[3] = L1210 Leukemia Cells Resistant, continuous exposure, MTT dye assay, read-out: IC50 VALUES
[4] = 144 h, Resistant L1210, six day MTT assay, continuous drug exposure, read-out: Concentration for 50% inhibition of tumor cells

pIC50 (205p14) | pIC50 (LOVOp32) | pIC50 (HT29p30) | pIC50 (SW80p105) | IC50 (L-1210/Murine Leukemia; [1]) | IC50 (Resistant L1210; [4]) | SMILES | also measured
4.94 | 6.10 | 5.08 | 5.89 |  |  | O=C1c2cccc3cc4ccccc4c(c23)C(=O)N1CCCN(CCO)CCO [Compound 12] | 
 |  |  |  | 5000 ng/mL (≈ 15000 nM) |  | CN(C)CCN1C(=O)c2cccc3cc4c(N)cccc4c(c23)C1=O [Compound 14, 8-Amino-2-[2'-(dimethylamino)ethyl]-1,2-dihydro-3H-dibenz-(deh)isoquinoline-1,3-dione] | IC50 (8226 Human Myeloma): > 100 ng/mL; IC50 (L-1210/Murine Leukemia; [2]): 5000 ng/mL (≈ 15000 nM); IC50 (Resistant L1210; [3]): > 5000 ng/mL; IC50 (8226/DOX-40): > 100 ng/mL
 |  |  |  | 2.7 ng/mL (≈ 7.43 nM) | 3 ng/mL (≈ 8.26 nM) | CN(C)CCN1C(=O)c2cccc3cc4c([N+](=O)[O-])cccc4c(c23)C1=O [Compound 13, 2-[2'-(dimethylamino)ethyl]-1,2-dihydro-8-nitro-3H-dibenz(deh)isoquinoline-1,3-dione] | IC50 (8226 Human Myeloma): 5 ng/mL (≈ 13.8 nM); IC50 (L-1210/Murine Leukemia; [2]): 2.5 ng/mL (≈ 6.88 nM); IC50 (Resistant L1210; [3]): 2.9 ng/mL (≈ 7.98 nM); IC50 (8226/DOX-40): 10 ng/mL (≈ 27.5 nM)
 |  |  |  | 28 ng/mL (≈ 79.4 nM) | 30 ng/mL (≈ 85 nM) | CN(C)CCN1C(=O)c2cccc3c(Cl)c4ccccc4c(c23)C1=O [Compound 17, 7-Chloro-2-[2'-(dimethylamino)ethyl]-1,2-dihydro-3H-dibenz(deh)-isoquinoline-1,3-dione] | 
4.87 | 5.80 | 5.08 | 5.89 |  |  | CN(C)CCCN1C(=O)c2cccc3cc4ccccc4c(c23)C1=O [Compound 11, 2-[3'-(dimethylamino)propyl]-1,2-dihydro-3H-dibenz(deh)isoquinoline-1,3-dione] | 
5.52 | 5.52 | 5.76 | 5.60 |  |  | CN(C)CCN1C(=O)c2cccc3cc4cccc([N+](=O)[O-])c4c(c23)C1=O [Compound 2, 2-[2-(dimethylamino)ethyl]-1,2-dihydro-11-nitro-2H-dibenz(deh)isoquinoline-1,3-dione] | 
 |  |  |  | 3 ng/mL (≈ 9.03 nM) | 3 ng/mL (≈ 9.03 nM) | Cc1c2ccccc2c2c3c(cccc13)C(=O)N(CCN(C)C)C2=O [Compound 19, 2-[2'-(Dimethylamino)ethyl]-1,2-dihydro-7-methyl-3H-dibenz(deh)isoquinoline-1,3-dione] | 
 |  |  |  | 3.2 ng/mL (≈ 9.18 nM) | 2.8 ng/mL (≈ 8.04 nM) | COc1c2ccccc2c2c3c(cccc13)C(=O)N(CCN(C)C)C2=O [Compound 20, 2-[2'-(Dimethylamino)ethyl]-1,2-dihydro-7-methoxy-3H-dibenz-(deh)isoquinoline-1,3-dione] | 
5.59 | 5.40 | 5.44 | 5.51 |  |  | CN(C)CCN1C(=O)c2cccc3cc4cccc(N)c4c(c23)C1=O [Compound 3, 11-Amino-2-[2'-(dimethylamino)ethyl]-1,2-dihydro-3H-dibenz(deh)isoquinoline-1,3-dione] | 
 |  |  |  | 3.2 ng/mL (≈ 9.57 nM) | 3.2 ng/mL (≈ 9.57 nM) | CN(C)CCN1C(=O)c2cccc3c(O)c4ccccc4c(c23)C1=O [Compound 21, 2-[2'-(dimethylamino)ethyl]-1,2-dihydro-7-hydroxy-3H-dibenz(deh)isoquinoline-1,3-dione] | 
 |  | 6.60 | 6.12 |  |  | CN(C)c1ccc(N2C(=O)c3cccc4cc5ccccc5c(c34)C2=O)cc1 [Compound 10, 2-(4'-dimethylaminophenyl)-1,2-dihydro-3H-dibenz(deh)isoquinoline-1,3-dione] | 
4.93 | 6.00 | 5.59 | 6.05 |  |  | O=C1c2cccc3cc4ccccc4c(c23)C(=O)N1CCN1CCCC1 [Compound 8, 2-[2'-(N-pyrrolidino)ethyl]-1,2-dihydro-3H-dibenz(deh)isoquinoline-1,3-dione] | 
 |  |  |  | 3.2 ng/mL (≈ 10.5 nM) | 2.7 ng/mL (≈ 8.87 nM) | CNCCN1C(=O)c2cccc3cc4ccccc4c(c23)C1=O [Compound 22, 1,2-Dihydro-2-[2'-(methylamino)ethyl]-3H-dibenz(deh)isoquinoline-1,3-dione] | 
 |  |  |  | 3.1 ng/mL (≈ 8.95 nM) | 3.1 ng/mL (≈ 8.95 nM) | CCc1ccc2c3c(c4ccccc4cc13)C(=O)N(CCN(C)C)C2=O [Compound 15, 2-[2'-(dimethylamino)ethyl]1,2-dihydro-6-ethyl-3H-dibenz(deh)isoquinoline-1,3-dione] | 
5.00 | 6.12 | 5.36 | 6.00 |  |  | O=C1c2cccc3cc4ccccc4c(c23)C(=O)N1CCN1CCCCC1 [Compound 7, 2-[2'-(N-piperidino)ethyl]-1,2-dihydro-3H-dibenz(deh)isoquinoline-1,3-dione] | 
4.76 | 5.25 | 4.95 | 5.52 |  |  | CCN1CCCC(N2C(=O)c3cccc4cc5ccccc5c(c34)C2=O)C1 (stereo not shown) [Compound 9, 2-(1'-ethyl-3'piperidinyl)-1,2-dihydro-3H-dibenz(deh)isoquinoline-1,3-dione] | 
 |  |  |  | 2.5 ng/mL (≈ 7.09 nM) | 2 ng/mL (≈ 5.67 nM) | CN(C)CCN1C(=O)c2cccc3cc4ccc(Cl)cc4c(c23)C1=O [Compound 16, 10-Chloro-2-[2'-(dimethylamino)ethyl]-1,2-dihydro-3H-dibenz(deh)isoquinoline-1,3-dione] | 
